Laboratory results as given in paper PMC4873368 (Cancer research, 2016).

Key:
A2780 cells = test: A2780 cell proliferation screen; assay type: cell-based; conditions: Homo sapiens, A2780, 72 h, read-out: EC50 A2780
human T cells [1] = test: ConA-induced T cell expansion from human PBMCs; assay type: cell-based; conditions: 168 h, read-out: EC50 T cells
human T cells [2] = test: Cytokine rescue of human T cell proliferation from trametinib; assay type: cell-based; conditions: aAPCs, 200 nM trametinib, 7 days; IL-2 20 U/ml, IL-7 2 ng/ml, IL-15 10 ng/ml, IL-21 100 ng/ml, IL-27 50 ng/ml, ALT-803 35.7 ng/ml
ERK1/2 phosphorylation = test: TCR ligation of human CD8 T cells, Western blot p-ERK1/2; assay type: cell-based; conditions: within 10 minutes post-activation, trametinib 8 nM
Brpkp110 tumors = conditions: trametinib 1.0 mg/kg oral gavage days 3-13, single intervention
human T cells [3] = test: Human T cell proliferation with aAPCs; assay type: cell-based; conditions: human PBMCs, 7 days
MEK = test: Brpkp110 cells MEK signaling, Western blot; assay type: cell-based, mouse; conditions: 8 nM or 200 nM trametinib, 18 hr

| EC50 (A2780 cells) | EC50 (human T cells [1]) | Molecule | other results |
| --- | --- | --- | --- |
| > 25000 nM | > 25000 nM | C[C@]1(O)C[C@@H](c2nc(-c3ccc4ccc(-c5ccccc5)nc4c3)c3c(N)nccn32)C1 [OSI-906 (linsitinib), linsitinib] |  |
| > 25000 nM |  | CCCS(=O)(=O)Nc1ccc(F)c(C(=O)c2c[nH]c3ncc(-c4ccc(Cl)cc4)cc23)c1F [PLX4032 (vemurafenib), vemurafenib] |  |
|  | 110 nM | CC(=O)c1c(C)c2cnc(Nc3ccc(N4CCNCC4)cn3)nc2n(C2CCCC2)c1=O [PD0332991 (palbociclib), palbociclib] |  |
| 2350 nM | 96 nM | Cn1ncc(Cl)c1-c1cc(C(=O)N[C@H](CN)Cc2ccc(F)c(F)c2)oc1Cl [GSK2141795] |  |
| > 25000 nM |  | COc1cc(Nc2ncc3c(n2)-c2ccc(Cl)cc2C(c2c(F)cccc2OC)=NC3)ccc1C(=O)O [MLN8237 (alisertib), alisertib] |  |
|  | 25 nM | Cc1[nH]c2ccccc2c1CCNCc1ccc(/C=C/C(=O)NO)cc1 [LBH589 (panobinostat), panobinostat] |  |
| > 25000 nM |  | CN(C)C(=O)c1cc2cnc(Nc3ccc(N4CCNCC4)cn3)nc2n1C1CCCC1 [LEE011] |  |

The remaining lines, values behind:

| Molecule | EC50 (A2780 cells) | EC50 (human T cells [1]) | other results |
| --- | --- | --- | --- |
| CN1CCN(CCOc2cc(OC3CCOCC3)c3c(Nc4c(Cl)ccc5c4OCO5)ncnc3c2)CC1 [AZD0530 (saracatinib), saracatinib] | > 25000 nM |  |  |
| COc1ccc(-c2ccc3c(N4CCOC[C@@H]4C)nc(N4CCOC[C@@H]4C)nc3n2)cc1CO [AZD8055] | 78.3 nM | 13.6 nM |  |
| Cn1c(=O)n(-c2ccc(C(C)(C)C#N)cc2)c2c3cc(-c4cnc5ccccc5c4)ccc3ncc21 [BEZ235 (dactolisib), dactolisib] | 21 nM | 2.4 nM |  |
| CCN(CCCOc1ccc2c(Nc3cc(CC(=O)Nc4cccc(F)c4)n[nH]3)ncnc2c1)CCOP(=O)(O)O [AZD1152 (barasertib), barasertib] | > 25000 nM |  |  |
| Cn1cnc2c(F)c(Nc3ccc(Br)cc3Cl)c(C(=O)NOCCO)cc21 [AZD6244 (selumetinib), selumetinib] | > 25000 nM |  |  |
| IL-21: human IL-21 cytokine |  |  | Rescue of human T cell proliferation in the presence of trametinib (human T cells [2]): no significant rescuing effect |
| IL-15: Recombinant human IL-15 (Novoprotein) |  |  | Rescue of human T cell proliferation in the presence of trametinib (human T cells [2]): able to individually rescue the proliferation; Rescue of TCR-induced ERK1/2 phosphorylation from MEK inhibition (ERK1/2 phosphorylation): can rescue |
| Cc1cc([C@@H](C)Nc2ccccc2C(=O)O)c2nc(N3CCOCC3)cc(=O)n2c1 [AZD6482] | > 25000 nM |  |  |
| CC(=O)Nc1cccc(-n2c(=O)n(C3CC3)c(=O)c3c(Nc4ccc(I)cc4F)n(C)c(=O)c(C)c32)c1 [GSK1120212 (trametinib), trametinib] | > 25000 nM |  | Growth of Brpkp110 tumors (Brpkp110 tumors): significantly reduced the growth; Proliferation of human T cells in response to aAPC coated with agonistic CD3 and CD28 antibodies (human T cells [3]): Comparable results; Signaling through MEK in Brpkp110 cells (MEK): can be inhibited |
| COc1ncc(-c2ccc3nccc(-c4ccnnc4)c3c2)cc1NS(=O)(=O)c1ccc(F)cc1F [GSK2126458 (omipalisib), omipalisib] | 155 nM | 0.237 nM |  |
| CN(C)CC[C@H](CSc1ccccc1)Nc1ccc(S(=O)(=O)NC(=O)c2ccc(N3CCN(Cc4ccccc4-c4ccc(Cl)cc4)CC3)cc2)cc1[N+](=O)[O-] [ABT-737] |  | 61 nM |  |
| IL-7: mouse IL-7 (Peprotech) (protein, UniProt P10168 26-154, looked up) Interleukin-7: ECHIKDKEGKAYESVLMISIDELDKMTGTDSNCPNNEPNFFRKHVCDDTKEAAFLNRAARKLKQFLKMNISEEFNVHLLTVSQGTQTLVNCTSKEEKNVKEQKKNDACFLKRLLREIKTCWNKILKGSI |  |  | Rescue of human T cell proliferation in the presence of trametinib (human T cells [2]): able to individually rescue the proliferation |
| IL-27: human IL-27 (eBioscience) (protein, UniProt Q8NEV9 29-243; Q14213 21-229, looked up) Interleukin-27 subunit alpha: FPRPPGRPQLSLQELRREFTVSLHLARKLLSEVRGQAHRFAESHLPGVNLYLLPLGEQLPDVSLTFQAWRRLSDPERLCFISTTLQPFHALLGGLGTQGRWTNMERMQLWAMRLDLRDLQRHLRFQVLAAGFNLPEEEEEEEEEEEEERKGLLPGALGSALQGPAQVSWPQLLSTYRLLHSLELVLSRAVRELLLLSKAGHSVWPLGFPTLSPQP Interleukin-27 subunit beta: RKGPPAALTLPRVQCRASRYPIAVDCSWTLPPAPNSTSPVSFIATYRLGMAARGHSWPCLQQTPTSTSCTITDVQLFSMAPYVLNVTAVHPWGSSSSFVPFITEHIIKPDPPEGVRLSPLAERQLQVQWEPPGSWPFPEIFSLKYWIRYKRQGAARFHRVGPIEATSFILRAVRPRARYYVQVAAQDLTDYGELSDWSLPATATMSLGK |  |  | Rescue of human T cell proliferation in the presence of trametinib (human T cells [2]): no significant rescuing effect |
